PMC3832412 (PLoS ONE, 2013)
Entries after “also recorded” stand apart in the source; their conditions may differ.

Legend:
[1] = system: NMDAR in primary rat hippocampal neurons; format: cell-based, rat (Sprague-Dawley)
[2] = system: NMDAR in primary rat hippocampal neurons; format: cell-based, rat (Sprague-Dawley); remark: listed apart in the source

Substance: GIKAQRDILYYγGγGγEHI-CONH2 [scrambled peptide]
- effect on iCa^2+ levels [1]: did not result in any decrease in iCa^2+ levels; also recorded: no significant differences; also recorded: no such inhibitory activity
- inhibition of NMDA-evoked current [2]: did not inhibit NMDA-evoked currents; also recorded: no such inhibitory activity
